From ChEMBL document CHEMBL3751735, “Discovery of 2-(4-sulfonamidophenyl)-indole 3-carboxamides as potent and selective inhibitors with broad hepatitis C virus genotype activity targeting HCV NS4B” (Bioorg Med Chem Lett, 2016) come the findings set out here.

Some results are limits rather than exact numbers.

The subject of data set [1] is Hepatitis C virus. The experiment in a line: Antiviral activity against HCV genotype 1a H77S bicistronic replicon infected in human Huh7 cells assessed as replicon RNA expression measured 3 days post dose by real time RT-PCR analysis. In kind it is functional, organism-based, Hepacivirus hominis. The conditions noted are these: Huh-7, 72 h.
Data set [2] has as its system Hepatitis C virus. Nature of the data set: Antiviral activity against HCV genotype 2a JFH-1 infected in human HuH7.5 cells assessed as HCV RNA expression measured 72 hrs post dose by qRT-PCR analysis. In kind it is functional, organism-based, Hepacivirus hominis. The settings on record: JFH-1, Huh-7, 72 h. (Real-time PCR tracks product formation cycle by cycle.)
Data set [3] can be described thus: Toxicity against human HuH7 cells harboring HCV genotype 1b bicistronic replicon assessed as inhibition of GAPDH mRNA expression measured 3 days post dose by real time RT-PCR analysis. Format: cell-based, Huh-7. (In general: Replicon systems follow genome replication, usually without infectious particles.)
Data set [4] deals with Hepatitis C virus. Nature of the data set: Antiviral activity against HCV genotype 1b Con1 bicistronic replicon infected in human Huh7 cells assessed as replicon RNA expression measured 3 days post dose by real time RT-PCR analysis. Format: functional, organism-based, Hepacivirus hominis. The settings on record: isolate Con1, Huh-7, 72 h.
Data set [5] in a line: AUC (0 to 6 hrs) in Sprague-Dawley rat plasma at 10 mg/kg, po measured at 30 mins to 6 hrs post dose. In kind it is ADME, organism-based. Also noted: dose 10 mg/kg, time < 6 hr, route oral.
Data set [6] is described as follows: Ratio of drug level in liver to plasma in Sprague-Dawley rat at 10 mg/kg, po measured 6 hrs post dose. Format: ADME, organism-based. The conditions noted are these: liver and plasma.
For data set [7], the system named is Hepatitis C virus. The experiment in a line: Antiviral activity against HCV genotype 3a S52/SG-Feo(SH) infected in human HuH7.5 cells measured 3 days post dose by Luciferase assay. In kind it is functional, organism-based, Hepacivirus hominis. The settings on record: Huh-7, 72 h.
Data set [8] concerns Hepatitis C virus. Nature of the data set: Antiviral activity against HCV genotype 1b harboring NS4B F98C mutant relative to wild type HCV genotype 1b. In kind it is functional, Hepacivirus hominis.
Data set [9] relates to Hepatitis C virus. Nature of the data set: Antiviral activity against HCV genotype 1b harboring NS4B V105M mutant relative to wild type HCV genotype 1b. Format: functional, Hepacivirus hominis.

As a reminder, the EC50 is the concentration at which the effect is half-maximal. Broadly, the IC50 is the concentration at which inhibition is half-maximal. Usually AUC(0-t) stands for the area under the concentration-time curve up to a stated or last time point. Read a low AUC(0-t) as low exposure. A word on the Kp: it is tissue or fluid exposure divided by exposure in the circulation. As to `Cc1cc(NS(=O)(=O)C(C)(C)C)ccc1-c1c(C(N)=O)c2cc(F)c(OC(F)F)cc2n1C1CCCCC1`, the concentration for a half-maximal effect (EC50) in data set [1] was 1 nM; in data set [2], 24 nM; in [4] it was 10 nM; in [7], 0.5 nM. In addition, the IC50 at 3 days in [3] is above 10 µM. For the same compound, the AUC(0-t) at 6 h in data set [5] is 4.96 µM·h. Also, the Kp at 6 h in data set [6] came to 62.

For the compound `CC(C)(C)S(=O)(=O)Nc1ccc(-c2c(C(N)=O)c3cc(F)c(OC(F)F)cc3n2C2CCCCC2)cc1`, the 50% effective concentration (EC50) in [1] is 1 nM; in [2], 35 nM; in data set [4], 2 nM; in data set [7], 3 nM. In addition, the “fold change (FC)” value was “>=22” in data set [8] and above 55 in [9]. For the same compound, in data set [3], the IC50 at 3 days is above 10 µM. In data set [5], this compound showed an AUC(0-t) at 6 h of 0.831 µM·h. The Kp at 6 h in data set [6] came out at 25.
